Reference: patent US20020052295A1, “Diacyl derivatives of propylene diamine having herbicidal activity” (priority 1999, published 2002)

Legend:
PANMI = experiment: Pre-emergence herbicidal activity on PANMI (wild proso millet); assay type: in vivo, Panicum miliaceum
Outline: (§1)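 Values are GR80 (rate giving 80% inhibition), with rates up to typically 1000 g/ha. Inhibition is visually recorded against untreated pots roughly two weeks after sowing and surface treatment in a 30/21 °C day/night greenhouse.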

dicotyledonous species = experiment: Pre-emergence test (later test), average GR80 on dicotyledonous species; assay type: in vivo; settings: average over dicotyledonous species
From the text: (§2) All such uses, and the biological activity enabling such uses, are embraced by the term “herbicidal” herein. Tables 15 and 16 summarize results of tests conducted as described below to determine the pre-emergence herbicidal activity, in the form of a GR80 value, of illustrative compounds of this invention. […] Where herbicidal activity was evident but 80% inhibition was not achieved at the highest rate tested (typically 1000 g/ha), an asterisk (*) is shown in the following tables. Herbicidal activity evident in the form of symptoms of phytotoxicity, in the absence of at least 80% inhibition at any rate, is indicated in the tables by “phyto”. A blank cell in the following tables indicates no herbicidal or phytotoxic response at any rate tested.
(§3) The pre-emergence tests were conducted by the following procedure. Topsoil was sieved to pass through a 1.27 cm screen. Fertilizer was added to the topsoil and the mixture was then sterilized by heating. The topsoil mixture was placed in a pot and compacted to a depth of 1.0 to 1.25 cm from the top of the pot. Seeds of each of several monocotyledonous and dicotyledonous annual plant species were placed on top of the soil. […]
(§4) Approximately 14 days after planting and treating, the plants were observed and herbicidal efficacy recorded as percent inhibition by comparison with untreated plants. […]

[1] = tested on: monocotyledonous and dicotyledonous annual plant species; experiment: Greenhouse pre-emergence test, all species of the test taken together; assay type: in vivo
From the text: All such uses, and the biological activity enabling such uses, are embraced by the term “herbicidal” herein. […] Where herbicidal activity was evident but 80% inhibition was not achieved at the highest rate tested (typically 1000 g/ha), an asterisk (*) is shown in the following tables. Herbicidal activity evident in the form of symptoms of phytotoxicity, in the absence of at least 80% inhibition at any rate, is indicated in the tables by “phyto”. A blank cell in the following tables indicates no herbicidal or phytotoxic response at any rate tested.
The pre-emergence tests were conducted by the following procedure. Topsoil was sieved to pass through a 1.27 cm screen. Fertilizer was added to the topsoil and the mixture was then sterilized by heating. The topsoil mixture was placed in a pot and compacted to a depth of 1.0 to 1.25 cm from the top of the pot. Seeds of each of several monocotyledonous and dicotyledonous annual plant species were placed on top of the soil. Additional soil was subsequently placed over the seeds to level-fill the pot. A known amount of each test compound dissolved or suspended in an appropriate organic solvent was diluted with a 50:50 mix of acetone and water and applied to the surface of the soil. After treatment the plants were placed in a greenhouse with a 30/21° C. day/night temperature regime where they received 0.64 cm of overhead irrigation. All subsequent watering consisted of a light overhead mist and/or subirrigation as needed for germination and growth.
Pre-emergence herbicidal activity of the compound of Example 5, a racemic mixture of R- and S-enantiomers of N,N′-(1,2-propanediylbis)-3-(trifluoromethyl) benzamide, was compared with that of the individual R- and S-enantiomers, the compounds of Examples 5a and 5b respectively. The procedure was exactly as described above. Rates tested were 1000, 650, 300, 200, 100, 65, 30 and 10 g/ha.
In a greenhouse pre-emergence test conducted according to the procedure described hereinabove, R—N,N′-(1,2-propanediylbis)-3-(trifluoromethyl)benzamide (the compound of Example 5a) was applied at 200 g/ha and acetochlor was applied at 100 g/ha, both individually and in combination.
In the same greenhouse pre-emergence test, R-2-fluoro-3-trifluoromethyl-N-[1-methyl-2-(3-trifluoromethyl)phenylcarbonylamino]ethylbenzamide (the compound of Example 13) was applied at 100 g/ha and acetochlor was applied at 100 g/ha, both individually and in combination.

BRAPP = experiment: Pre-emergence herbicidal activity on BRAPP (broadleaf signalgrass); assay type: in vivo, Brachiaria platyphylla
Outline: as §1

DATST = experiment: Pre-emergence herbicidal activity on DATST (jimsonweed); assay type: in vivo, Datura stramonium
Outline: as §1

monocotyledonous species = experiment: Pre-emergence test (later test), GR80 on monocotyledonous species; assay type: in vivo; settings: average over monocotyledonous species
From the text: as §2, §3, §4

ABUTH = experiment: Pre-emergence herbicidal activity on ABUTH (velvetleaf); assay type: in vivo, Abutilon theophrasti
Outline: as §1

SORHA = experiment: Pre-emergence herbicidal activity on SORHA (johnsongrass, seedling); assay type: in vivo, Sorghum halepense
Outline: as §1

CIRAR = experiment: Pre-emergence herbicidal activity on CIRAR (canada thistle, seedling); assay type: in vivo, Cirsium arvense
Outline: as §1

SORVU = experiment: Pre-emergence herbicidal activity on SORVU (shattercane); assay type: in vivo, Sorghum vulgare; settings: racemic mixture vs enantiomers test; rates tested 1000, 650, 300, 200, 100, 65, 30 and 10 g/ha; lowest rate with 80% or greater inhibition
Outline: as §1

SOLNI = experiment: Pre-emergence herbicidal activity on SOLNI (black nightshade); assay type: in vivo, Solanum nigrum
Outline: as §1

PANDI = experiment: Pre-emergence herbicidal activity on PANDI (fall panicum); assay type: in vivo, Panicum dichotomiflorum
Outline: as §1

AMARE = experiment: Pre-emergence herbicidal activity on AMARE (redroot pigweed); assay type: in vivo, Amaranthus retroflexus
Outline: as §1

sorghum = experiment: Field trials, crop selectivity in sorghum; assay type: in vivo; settings: pre-emergence rates giving acceptable weed control
[2] = tested on: several weed species, predominantly dicotyledonous species; experiment: Field trials, pre-emergence weed control; assay type: in vivo; settings: pre-emergence application
ECHCG = experiment: Pre-emergence herbicidal activity on ECHCG (barnyardgrass); assay type: in vivo, Echinochloa crus-galli; settings: racemic mixture vs enantiomers test; rates tested 1000, 650, 300, 200, 100, 65, 30 and 10 g/ha; lowest rate with 80% or greater inhibition
Outline: as §1

rice = settings: field trials; pre-emergence
DIGSA = experiment: Pre-emergence herbicidal activity on DIGSA (large crabgrass); assay type: in vivo, Digitaria sanguinalis
Outline: as §1

corn (maize) = experiment: Field trials, crop selectivity in corn; assay type: in vivo; settings: pre-emergence rates giving acceptable weed control
POROL = experiment: Pre-emergence herbicidal activity on POROL (common purslane); assay type: in vivo, Portulaca oleracea
Outline: as §1

CHEAL = experiment: Pre-emergence herbicidal activity on CHEAL (common lambsquarters); assay type: in vivo, Chenopodium album
Outline: as §1

CONAR = experiment: Pre-emergence herbicidal activity on CONAR (field bindweed); assay type: in vivo, Convolvulus arvensis
Outline: as §1

SETFA = experiment: Pre-emergence herbicidal activity on SETFA (giant foxtail); assay type: in vivo, Setaria faberi
Outline: as §1

cotton = settings: field trials; pre-emergence
soybeans = experiment: Field trials, crop selectivity in soybeans; assay type: in vivo; settings: pre-emergence rates giving acceptable weed control
[3] = pre-emergence application, Example 5a 200 g/ha alone
[4] = racemic mixture vs enantiomers test, rates tested 1000, 650, 300, 200, 100, 65, 30 and 10 g/ha, lowest rate with 80% or greater inhibition

C[C@H](CNC(=O)c1cccc(C(F)(F)F)c1)NC(=O)c1cccc(C(F)(F)F)c1 [Example 5a, R—N,N′-(1,2-propanediylbis)-3-(trifluoromethyl)benzamide]
Percent control PANMI (PANMI; [3]): 20% | Pre-emergence activity (GR80) PANMI (PANMI; [4]): 300 g/ha | average pre-emergence GR80 on dicotyledonous species (dicotyledonous species): 235 g/ha | herbicidal activity of the combination compared with expectation ([1]; Example 5a 200 g/ha + acetochlor 100 g/ha, at least on ABUTH, DATST, SORHA and PANMI): greater than expected herbicidal activity | number of the 14 species showing >85% control ([1]; Example 5a 200 g/ha in combination with acetochlor 100 g/ha): 11 | number of the 14 species showing >85% control ([1]; Example 5a alone at 200 g/ha): 4 | GR80 values relative to those of the racemic mixture ([1]; typical over species of Tables 19 and 20): about one-half | Percent control BRAPP (BRAPP; [3]): 15% | Pre-emergence activity (GR80) BRAPP (BRAPP; [4]): phyto | Percent control DATST (DATST; [3]): 41% | Pre-emergence activity (GR80) DATST (DATST; [4]): 650 g/ha | pre-emergence GR80 on monocotyledonous species (monocotyledonous species): 711 g/ha | Percent control ABUTH (ABUTH; [3]): 8% | Pre-emergence activity (GR80) ABUTH (ABUTH; [4]): 650 g/ha | Percent control SORHA (SORHA; [3]): 30% | Pre-emergence activity (GR80) SORHA (SORHA; [4]): phyto | Percent control CIRAR (CIRAR; [3]): 35% | Pre-emergence activity (GR80) CIRAR (CIRAR; [4]): 1000 g/ha | Pre-emergence activity (GR80) SORVU (SORVU): [empty] | Percent control SOLNI (SOLNI; [3]): 100% | Pre-emergence activity (GR80) SOLNI (SOLNI; [4]): 200 g/ha | Percent control PANDI (PANDI; [3]): 55% | Pre-emergence activity (GR80) PANDI (PANDI; [4]): 200 g/ha | Percent control AMARE (AMARE; [3]): 100% | Pre-emergence activity (GR80) AMARE (AMARE; [4]): 30 g/ha | crop injury, sorghum (sorghum): not injurious | weed control in field trials [2]: acceptable control | Pre-emergence activity (GR80) ECHCG (ECHCG): phyto | crop selectivity, rice (rice): not to be adequately selective | Percent control DIGSA (DIGSA; [3]): 82% | Pre-emergence activity (GR80) DIGSA (DIGSA; [4]): 65 g/ha | crop injury, corn (maize) (corn (maize)): not injurious | Percent control POROL (POROL; [3]): 100% | Pre-emergence activity (GR80) PORAL (POROL; [4]): 30 g/ha | Percent control CHEAL (CHEAL; [3]): 100% | Pre-emergence activity (GR80) CHEAL (CHEAL; [4]): 65 g/ha | Percent control CONAR (CONAR; [3]): 22% | Pre-emergence activity (GR80) CONAR (CONAR; [4]): phyto | Percent control SETFA (SETFA; [3]): 40% | Pre-emergence activity (GR80) SETFA (SETFA; [4]): phyto | crop selectivity, cotton (cotton): not to be adequately selective | crop injury, soybeans (soybeans): not injurious
